Patent publication US20090228996A1, “Means and Methods for influencing Interactions Between Dc-Sign and Dc-Sign Ligands” (priority 2006, published 2009)

Tests used:
[1] = molecular target: T1, DC-SIGN on Raji-DC-SIGN cells (Homo sapiens, UniProt Q9NNX6); assay: gp120 bead adhesion assay, Raji-DC-SIGN cells; assay type: cell-based; conditions: for binding of gp120 beads to Raji-DC-SIGN: cells pre-incubated 30 min, human milk 1/20, vs control
T1 construct: expressed in transfected cells; host or cells: Raji cells (Raji-DC-SIGN)
T1 sequence (Q9NNX6 1-404): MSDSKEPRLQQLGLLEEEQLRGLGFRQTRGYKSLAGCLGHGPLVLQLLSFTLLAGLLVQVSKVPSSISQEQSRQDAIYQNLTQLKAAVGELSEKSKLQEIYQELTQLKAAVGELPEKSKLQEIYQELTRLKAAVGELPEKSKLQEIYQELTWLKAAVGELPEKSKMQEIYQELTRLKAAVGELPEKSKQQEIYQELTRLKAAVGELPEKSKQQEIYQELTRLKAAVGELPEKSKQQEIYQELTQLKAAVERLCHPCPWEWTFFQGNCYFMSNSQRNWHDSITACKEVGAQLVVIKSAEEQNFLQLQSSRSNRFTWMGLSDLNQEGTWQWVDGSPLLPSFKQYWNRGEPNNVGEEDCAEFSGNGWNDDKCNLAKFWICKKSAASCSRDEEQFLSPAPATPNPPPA
Method: (§1) gp120 bead adhesion assay. Beads were prepared as previously described (Geijtenbeek et al, 2000 a), in short, streptavidin was covalently coupled to Carboxylate-modified TransFluoSpheres (488/645 nm, 1.0 μm; molecular probes). The steptavidin-beads were incubated with biotinylated F(ab′)2 fragment goat-anti-human IgG (6 μg/ml; Jackson Immunoresearch) and subsequently incubated overnight with gp120-Fc chimera. Fifty thousand cells, Raji-DC-SIGN cells, immature DCs or Raji-L-SIGN cells, were pre-incubated with human milk or milk compounds, AZN-D1 (Geijtenbeek et al, 2000 a), AZN-D2 (Halary et al, 2002), EGTA or mannan for 30 minutes at RT. The ligand-coated beads (20 beads/cell) were added to the pre-incubated cells and incubated for 30 minutes at 37° C. after which the cells were washed with TSM containing 0.5% BSA. After washing, the cells were resuspended in 100 μl TSM-BSA buffer and the adhesion was measured by flow cytometry (BD Biosciences).
(§2) gp120 bead adhesion assay. Beads were prepared as previously described (Geijtenbeek et al, 2000 a), in short, streptavidin was covalently coupled to Carboxylate-modified TransFluoSpheres (488/645 nm, 1.0 μm; molecular probes). The steptavidin-beads were incubated with biotinylated F(ab′)2 fragment goat-anti-human IgG (6 μg/ml; Jackson Immunoresearch) and subsequently incubated overnight with the gp120-Fc chimera. Fifty thousand cells, Raji-DC-SIGN cells or iDCs were pre-incubated with human milk, AZN-D1 (Geijtenbeek et al, 2000 a), AZN-D2 (Halary et al, 2002), EGTA or mannan for 30 minutes at RT. The ligand-coated beads (20 beads/cell) were added to the pre-incubated cells and incubated for 30 minutes at 37° C. after which the cells were washed with TSM (20 mM Tris, 150 mM NaCl, 1 mM CaCl2, 2 mM MgCl2) containing 0.5% BSA. After washing, the cells were resuspended in 100 μl TSM-BSA buffer and the adhesion was measured by flow cytometry (BD Biosciences).

DC-SIGN on iDCs = molecular target: T2, DC-SIGN on iDCs (Homo sapiens, UniProt Q9NNX6); assay: gp120 bead adhesion assay, immature DCs; assay type: cell-based; conditions: for binding of gp120 beads to iDC: cells pre-incubated 30 min, human milk 1/20, vs control
T2 construct: endogenous in cells
T2 sequence (Q9NNX6 1-404): T1 sequence (Q9NNX6 1-404)
Method: as §1, §2

DC-SIGN-Fc = molecular target: T3, DC-SIGN-Fc (Homo sapiens, UniProt Q9NNX6); assay: DC-SIGN-Fc binding ELISA
T3 construct: the extracellular portion of DC-SIGN (amino acids 64 to 404)
T3 sequence (Q9NNX6 64-404): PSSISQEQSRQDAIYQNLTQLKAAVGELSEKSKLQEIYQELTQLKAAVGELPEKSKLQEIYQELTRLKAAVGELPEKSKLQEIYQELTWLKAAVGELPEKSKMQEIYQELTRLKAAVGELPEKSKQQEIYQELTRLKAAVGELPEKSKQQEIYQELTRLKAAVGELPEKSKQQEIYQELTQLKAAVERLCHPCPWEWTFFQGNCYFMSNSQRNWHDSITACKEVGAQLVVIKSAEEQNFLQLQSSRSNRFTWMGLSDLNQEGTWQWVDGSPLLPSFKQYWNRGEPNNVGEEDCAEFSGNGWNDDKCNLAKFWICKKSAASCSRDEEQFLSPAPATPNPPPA
Method: DC-SIGN-Fc binding ELISA. The DC-SIGN-Fc chimera contained the extracellular portion of DC-SIGN (amino acids 64 to 404) fused at the C-terminus to a human immunoglobulin (Ig) G1 Fc fragment and has been previously described (Geijtenbeek et al, 2002). Human milk or human milk compounds were diluted in 0.2M NaHCO3, coated on ELISA plates (maxisorb plate; Nunc) and incubated overnight at 4° C. or 2 hours at 37° C. This was followed by blocking with TSM containing 1% BSA for 30 minutes at 37° C. before addition of soluble DC-SIGN-Fc (5 μg/ml) for 2 hours at RT, the binding was determined by incubation of a peroxidase labeled anti-IgG1 antibody for 30 minutes at RT. DC-SIGN-Fc binding specificity was determined by pre-incubation of the DC-SIGN-FC with either 50 μg/ml DC-SIGN specific mouse antibody AZN-D1 (Geijtenbeek et al, 2000 a) or 10 mM EGTA. Single-cycle-replication transmission assay. The assay was performed as previously described (Groot et al, 2005). In short mDCs and iDCs were incubated in a 96-well-plate (35−50×10^3 DC/well) with human milk for 30 minutes at 37° C. before addition of the virus (5 ng p24/well), which was incubated for 2 hours at 37° C. The DCs were washed twice with PBS before addition of 50×10^3 LuSIV cells. After 24 hours, LuSIV cells were harvested and resuspended in 50 μl lysis buffer (25 mM Tris-Cl 7.8, 2 mM DTT, 2 mM CDTA, 10% glycerol, 1% Triton X100). The cells were then incubated for 45 minutes at room temperature while shaking, followed by 10 minutes centrifugation at 3200×g. […]
DC-SIGN-Fc binding ELISA. […] This was followed by blocking with TSM containing 1% BSA for 30 minutes at 37° C. before addition of soluble DC-SIGN-Fc (5 μg/ml) for 2 hours at RT, the binding was determined by incubation of a peroxidase labeled anti-IgG1 antibody for 30 minutes at RT. DC-SIGN-Fc binding specificity was determined by pre-incubation of the DC-SIGN-Fc with either 50 μg/ml DC-SIGN specific mouse antibody AZN-D1 (Geijtenbeek et al, 2000 a) or 10 mM EGTA.

[2] = system: DC-SIGN mediated transfer of HIV-1 by Raji-DC-SIGN cells to CD4+ T-lymphocytes; assay: DC-SIGN mediated HIV-1 transfer assay (Raji-DC-SIGN transfer culture assay); assay type: cell-based; conditions: Le^x containing compounds, all at 10 μg/ml
Method: DC-SIGN mediated HIV-1 transfer assay. The Raji and Raji-DC-SIGN cells were plated at a concentration of 2×10^4 cells/well in a 96 well format. Dilutions of human milk or human milk compounds were made in PBS containing 10% FCS and spiked with 3.7log TCID50/ml of the appropriate virus before addition to the Raji-DC-SIGN cells. As controls PBS containing 10% FCS was spiked with the same TCID50/ml of the corresponding virus before addition to Raji or Raji-DC-SIGN cells. After incubation the culture was washed with PBS before addition of CD4^+ enriched T-lymphocytes at a concentration of 1×10^5 cells/well with p24 determined on day 7. DC-SIGN specific antibody binding after exposure to human milk. […] The cells were washed and resuspended in 100 μl TSM containing 0.5% bovine serum albumin, (BSA Fraction V, Fatty Acid-Free) (Calbiochem) and the adhesion was measured by flow cytometry (BD Biosciences).
DC-SIGN mediated HIV-1 transfer assay. […] After a two hour incubation the culture was washed with PBS before addition of CD4^+ enriched T-lymphocytes at a concentration of 1×10^5 cells/well with p24 values determined on day 7.

DC-SIGN [3] = molecular target: T4, DC-SIGN (Homo sapiens, UniProt Q9NNX6); assay: gp120 bead adhesion assay, cells not given; assay type: cell-based; conditions: Le^x containing compounds; data not shown
T4 sequence (Q9NNX6 1-404): T1 sequence (Q9NNX6 1-404)
Method: as §1

DC-SIGN [4] = molecular target: T4, DC-SIGN; conditions: literature; cited from earlier work
[5] = Example 2, protein fraction from milk S3 (C18 column) and DC-SIGN controls
[6] = major milk proteins at 1/20 dilution of physiological concentration in human milk

Molecule | binding of gp120 beads to Raji-DC-SIGN [1] | gp120 binding to iDCs (DC-SIGN on iDCs; [5]) | binding of gp120 beads to iDC (DC-SIGN on iDCs) | DC-SIGN mediated HIV-1 transfer [2] | interaction between DC-SIGN and gp120 (DC-SIGN [3]) | other results
O=C(O)CN(CCOCCOCCN(CC(=O)O)CC(=O)O)CC(=O)O [EGTA, reference compound] | block binding of gp120 beads to the DC-SIGN expressing cells to the same extent as human milk | demonstrated inhibition | block binding of gp120 beads to the DC-SIGN expressing cells to the same extent as human milk |  |  | DC-SIGN-Fc binding to human milk after pre-incubation of DC-SIGN-Fc (DC-SIGN-Fc; 50 μg/ml AZN-D1 or 10 mM EGTA, p<0.01): completely abrogated binding
Le^x-BSA: Lewis X-BSA, 14 atom spacer (Calbiochem) |  |  |  | able to inhibit DC-SIGN mediated HIV-1 transfer | none of the tested compounds were able to block the interaction | binding to DC-SIGN-Fc (DC-SIGN-Fc; Le^x-BSA or BSA control coated): demonstrates binding to DC-SIGN-Fc
human lysozyme: major human milk protein (Sigma) [reference compound] |  |  |  |  |  | gp120 binding to Raji-DC-SIGN [1, 6]: None of the tested human milk compounds could inhibit gp120 binding; gp120 binding to iDCs (DC-SIGN on iDCs; [6]): None of the tested human milk compounds could inhibit gp120 binding; DC-SIGN-Fc binding to coated milk compound (DC-SIGN-Fc; [6]): showed no binding
lacto-N-fucopentaose III [LNFP III, reference compound] |  |  |  | not able to prevent HIV-1 transfer | none of the tested compounds were able to block the interaction | previously shown DC-SIGN binding (DC-SIGN [4]): bind DC-SIGN
mannan | block binding of gp120 beads to the DC-SIGN expressing cells to the same extent as human milk | demonstrated inhibition | block binding of gp120 beads to the DC-SIGN expressing cells to the same extent as human milk |  |  | 
